Among the data in PubChem BioAssay (NCI) are GI50 and TGI values, retold here.

Test systems include MOLT-4 leukemia; LOX IMVI melanoma; MDA-MB-231 breast; HOP-92 NSCLC; NCI/ADR-RES ovarian; SK-MEL-28 melanoma; SN12C renal; U251 CNS; HCC-2998 colon; NCI-H522 lung.
Common to all, as to assay: growth of human tumour cells (NCI), 48 h

Structures are written as SMILES.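 Briefly, cells in 96-well plates were exposed to five compound concentrations for 48 h, and endpoints were estimated by linear interpolation. GI50: concentration for 50% inhibition of growth. The concentration for full growth arrest is given as TGI.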

As to `CC1=CCC[C@H]2[C@](C)(CC3=CC(=O)C(Sc4ccccc4)=CC3=O)[C@@H](C)CC[C@]12C`, the GI50 was 2.59 µM in the assay on MOLT-4 leukemia, 13.6 µM with LOX IMVI melanoma and 16.8 µM in the assay on HOP-92 NSCLC. The TGI in the assay with MOLT-4 leukemia was 6.03 µM; in the assay with LOX IMVI melanoma, 26.4 µM; in the assay with MDA-MB-231 breast, 51.8 µM; in the assay on HOP-92 NSCLC, 31.9 µM; with NCI/ADR-RES ovarian it was 32.5 µM; in the assay with SK-MEL-28 melanoma, 35.7 µM. The figures for the TGI in the assay with SN12C renal, with U251 CNS and with HCC-2998 colon were 31.6 µM, 40.1 µM and 41 µM, respectively.

`CC12CCC(C(=Nc3cc(C(F)(F)F)cc(C(F)(F)F)c3)C1=O)C2(C)C` (stereo not drawn): the TGI in the assay on MOLT-4 leukemia was 44.2 µM; in the assay on LOX IMVI melanoma, 29.9 µM; with MDA-MB-231 breast it was more than 100 µM; in the assay with NCI/ADR-RES ovarian, more than 100 µM; with SK-MEL-28 melanoma it was more than 100 µM; with U251 CNS it was more than 100 µM. Also, the TGI with HCC-2998 colon was found to be 73.3 µM.

Consider `c1csc(-c2ccsc2-c2ccsc2)c1`, for which the TGI with MOLT-4 leukemia, in the assay on LOX IMVI melanoma, in the assay with MDA-MB-231 breast, in the assay on HOP-92 NSCLC, with NCI/ADR-RES ovarian and in the assay with SK-MEL-28 melanoma was more than 100 µM throughout. The TGI in the assay with SN12C renal, in the assay with U251 CNS and in the assay on HCC-2998 colon was more than 100 µM in each case.

For `O=C(CSc1nnc(-c2ccc(N=Cc3ccc(Cl)cc3)cc2)o1)Nc1ccc([N+](=O)[O-])cc1`, the TGI with MOLT-4 leukemia stood at 36.7 µM; with LOX IMVI melanoma, 22.4 µM; in the assay with SK-MEL-28 melanoma, 33.7 µM; in the assay on NCI-H522 lung, 38.3 µM; in the assay on SN12C renal, 37.7 µM; in the assay on U251 CNS, 37.1 µM.

Turning to `O=C1C2=C(SCCS2)C(=O)c2c(Sc3ccc(Cl)cc3)c(Sc3ccc(Cl)cc3)c(Sc3ccc(Cl)cc3)c(Sc3ccc(Cl)cc3)c21`, the TGI was 30.9 µM in the assay on MOLT-4 leukemia; 85.3 µM in the assay with MDA-MB-231 breast; more than 100 µM with NCI/ADR-RES ovarian; more than 100 µM in the assay with SN12C renal; more than 100 µM in the assay with U251 CNS; more than 100 µM in the assay on HCC-2998 colon.

As for `COc1cccc(-c2nccc3c(OCc4ccccc4)c(OC)c(OC)cc23)c1`, the TGI with MOLT-4 leukemia, in the assay on LOX IMVI melanoma, in the assay on HOP-92 NSCLC, in the assay on NCI-H522 lung, in the assay on SN12C renal and in the assay on U251 CNS was more than 100 µM throughout. In addition, in the assay on HCC-2998 colon, the TGI was more than 100 µM.

With `CCOC(=O)C(=O)CC(=O)C1=C(c2ccccc2OC)CC(c2cccs2)=CC1=O`, the TGI in the assay on MOLT-4 leukemia, in the assay with LOX IMVI melanoma, with MDA-MB-231 breast, in the assay with HOP-92 NSCLC, in the assay on NCI/ADR-RES ovarian and in the assay with SK-MEL-28 melanoma was more than 100 µM throughout. Besides, the TGI with NCI-H522 lung, in the assay with SN12C renal and in the assay on U251 CNS was more than 100 µM each time.

For the molecule `O=C1/C(=C/c2ccccc2)NC(=S)N1CN1CCCCC1`, the TGI in the assay with MOLT-4 leukemia, in the assay with LOX IMVI melanoma, in the assay with MDA-MB-231 breast, in the assay with HOP-92 NSCLC, in the assay with NCI/ADR-RES ovarian and with SK-MEL-28 melanoma was more than 100 µM each time. Also, the TGI in the assay on SN12C renal and in the assay with U251 CNS was more than 100 µM each time.

For the molecule `Cc1cc(O)cc(O)c1C(=O)O[C@]1(C)C(=O)C=C2C=C(/C=C/C(=O)O)OC=C2C1=O`, the TGI in the assay on MOLT-4 leukemia, in the assay with LOX IMVI melanoma, with MDA-MB-231 breast, with HOP-92 NSCLC, in the assay on NCI/ADR-RES ovarian and in the assay with SK-MEL-28 melanoma was more than 100 µM in each case. Besides, the TGI with SN12C renal and in the assay on HCC-2998 colon was more than 100 µM throughout.

`Cn1ccnc1CCc1ccc(Cl)c(Cl)c1`: the TGI in the assay on MOLT-4 leukemia, in the assay on LOX IMVI melanoma, in the assay on HOP-92 NSCLC, with SK-MEL-28 melanoma, in the assay with NCI-H522 lung and in the assay on SN12C renal was more than 100 µM in each case. In the assay with U251 CNS, this molecule returned a TGI of more than 100 µM.

Regarding `O=C1CS[C@@](CC(c2ccc(Cl)cc2)c2ccc(Cl)cc2)(c2ccc(Cl)cc2)N1`, the TGI in the assay on MOLT-4 leukemia was 45 µM; with LOX IMVI melanoma, 65.4 µM; with HOP-92 NSCLC, 75 µM; in the assay on NCI/ADR-RES ovarian, more than 100 µM; in the assay with SK-MEL-28 melanoma, more than 100 µM; in the assay with NCI-H522 lung, more than 100 µM. Further, the TGI in the assay with SN12C renal is 5.42 µM; in the assay with U251 CNS, 63.1 µM; in the assay on HCC-2998 colon, more than 100 µM.

On to `CCOC(=O)c1[nH]c2cccc3c2c1CC[C@H](NC(=O)C(F)(F)F)C3=O`, for which the TGI in the assay with MOLT-4 leukemia is more than 100 µM; in the assay with LOX IMVI melanoma it was more than 100 µM; in the assay with MDA-MB-231 breast, more than 100 µM; in the assay with HOP-92 NSCLC, 69.4 µM; with NCI/ADR-RES ovarian, more than 100 µM; in the assay on SK-MEL-28 melanoma, 0.0458 µM. Further, the TGI in the assay with SN12C renal is more than 100 µM; with U251 CNS, 72.7 µM; in the assay on HCC-2998 colon, more than 100 µM.

Turning to `COC1=C2C=[N+](C)C3C(=C2C=CC1OC)Cc1cc2c(cc13)OCO2` (stereo not drawn), the TGI was 17.8 µM in the assay on MOLT-4 leukemia; 39.6 µM with LOX IMVI melanoma; 27.8 µM in the assay on MDA-MB-231 breast; 49.3 µM in the assay with HOP-92 NSCLC; more than 100 µM in the assay with NCI/ADR-RES ovarian; 47.4 µM in the assay on SK-MEL-28 melanoma. Further, the figures for the TGI in the assay on NCI-H522 lung, with SN12C renal and in the assay on U251 CNS were 21.4 µM, 18 µM and 30.7 µM, respectively.

In the case of `NC(=Nc1ccccc1)c1ccccc1N`, the TGI in the assay with MOLT-4 leukemia was more than 100 µM; with LOX IMVI melanoma, more than 100 µM; with MDA-MB-231 breast, more than 100 µM; in the assay on HOP-92 NSCLC it was more than 100 µM; in the assay on NCI/ADR-RES ovarian, more than 100 µM; in the assay with SK-MEL-28 melanoma, 64.4 µM. The TGI in the assay on U251 CNS and with HCC-2998 colon was more than 100 µM in each case.

Regarding `COc1cc2c(cc1OC)[C@@](C)(C(O)C(O)C(C)(C)O)NCC2` (stereo partly drawn), the TGI with MOLT-4 leukemia, with LOX IMVI melanoma, with MDA-MB-231 breast, with HOP-92 NSCLC, in the assay with NCI/ADR-RES ovarian and in the assay on SK-MEL-28 melanoma was more than 100 µM in each case. The TGI in the assay with NCI-H522 lung, in the assay on SN12C renal and in the assay on U251 CNS was more than 100 µM in each case.
